Reference: publication PMC12040169 (PLOS Biology, 2025)

Experiment: in vitro
Settings: human, hela cells, % viability

| Compound | viability at 28.5 h, 10 µM [%] |
| --- | --- |
| Cc1ccc(C(=O)NC(=S)Nc2ccc(-c3ccc(CO)o3)cc2)cc1[N+](=O)[O-] [CBK269127] | 110 |
| CC(Cn1cccn1)NCC(=O)N(C)C1(C#N)CCCCC1 (centres unmarked) [CBK305096] | 91.5 |
| Cc1nc(S(=O)(=O)Nc2ccc3[nH]ccc3c2)cn1C [CBK156800] | 68.3 |
| Cc1ccc(Nc2nc(N)nc(CSc3nnc(-c4ccncc4)o3)n2)cc1 [CBK266464] | 97.7 |
| c1ccc(CC2CCN(CCOc3ccccc3)CC2)cc1 [CBK126433] | 107 |
| Cc1ncsc1CCN(C)C(=O)Cn1nc(C)c2ccccc2c1=O [CBK306893] | 86.3 |
| O=C1NN=C(CSCCO)Oc2ccccc21 [CBK006771] | 88.5 |
| c1cncc(C2N3CCC4(CC3)c3[nH]c5ccccc5c3CCN24)c1 (centres unmarked) [CBK284430] | 92.8 |
| CN(C)c1ncccc1CNC(=O)c1ccccn1 [CBK297774] | 81.5 |
| Cc1cccnc1C(NC(=O)C1CCN(C(=O)N2CCCC2)CC1)c1cccs1 (centres unmarked) [CBK060124] | 106 |
| O=C(Cn1cnc(NCc2cscn2)n1)N1CCCCCC1 [CBK304061] | 98 |
| COC(=O)C1C(=O)c2cc3c(cc2C1c1cc(OC)c(OC)c(OC)c1)OCO3 (centres unmarked) [CBK200099] | 92.5 |
| CNCc1cc(Br)c(OCC(=O)Nc2ccccc2OC)c(OC)c1 [CBK107772] | 106 |
| COc1ccc(SCCCCN2CCC3(CC2)OCCc2c3[nH]c3ccccc23)cc1 [CBK113464T] | 0.266 |
| Cc1cc(S(=O)(=O)NCc2ccccc2-n2ccnc2)ccc1F [CBK281477] | 92.1 |
| Nc1nnc(-c2cccc(Cl)c2Cl)c(N)n1 [CBK011590] | 85.8 |
| COc1ccc2c(=O)c3c(oc2c1)C(=O)N(CCN(C)C)C3c1ccccn1 (centres unmarked) [CBK287781] | 98.3 |
| Cc1nc(C)n(CC(=O)N[C@H]2C3CCCCC3[C@@H]2c2ccccc2)n1 (some centres unmarked) [CBK285128] | 94.7 |
| CN(C)c1ncc(-c2ccc(Cl)cc2)c(C2CCCN2C(=O)CN2CCCC2)n1 (centres unmarked) [CBK286037] | 99.2 |
| CCOc1ccc(-c2ccnc(N[C@H]3CC[C@@H](N)CC3)n2)cc1C(=O)O [CBK307104] | 89.8 |
| CCOC(=O)Cn1[nH]c(COC(C)(C)C)c(Cc2c(Cl)cccc2Cl)c1=O [CBK103551] | 114 |
| O=C(NCCn1nc2c(cc1=O)CCCCC2)c1ccc(F)cc1 [CBK283279] | 93.3 |
| CC(C)NC(=O)NC(=O)C1CCN(CCOc2ccc(Cl)cc2Cl)CC1 [CBK034949] | 106 |

| Compound | viability at 28.5 h, 10 µM [%] |
| --- | --- |
| CC(C)(C)c1cc(/C=N/Nc2nc3ccccc3[nH]2)cc(C(C)(C)C)c1O [CBK262247] | 90.2 |
| CC(C)n1cc(C(=O)NCc2cccnc2N(C)C2CCCCC2)cn1 [CBK307593] | 105 |
| Brc1ccc(NCc2ccccn2)cc1 [CBK026347] | 104 |
| CC(C)CCN1CCn2nc(CNc3cnccn3)cc2C1 [CBK307540] | 85.8 |
| CCc1cc(NC[C@@H](O)CO)nc(-c2cc(F)c(F)c(F)c2)n1 [CBK132879] | 94.2 |
| COCCNC(=O)N[C@H](Cc1ccccc1)C(=O)O [CBK286667] | 85.5 |
| O=S(=O)(NC(c1ccccc1)c1ccccc1)c1ccc(Cl)cc1 [CBK261759] | 104 |
| COc1ccc(C(C)C)cc1-c1cncc(NC(C)CCCC(C)(C)O)n1 (centres unmarked) [CBK065521] | 93.3 |
| Cn1cc(CCNC(=O)N2CCCN(Cc3cccs3)CC2)cn1 [CBK305393] | 89.1 |
| CC(C)C(=O)N1CCC(Cn2nc(-c3ccccc3)ccc2=O)CC1 [CBK284114] | 83.1 |
| CNC(=O)C1CCN(Cc2ccc(-c3nnn(CC(=O)NCc4ccc(C)cc4)n3)cc2)CC1 [CBK153195T] | 96.1 |
| CCN(C(=O)c1cc(C)nc2ccccc12)C1CCN(C)CC1 [CBK281920] | 106 |
| CC(C)(C)OC(=O)N1CCN(Cc2ccc(N)c3ccccc23)CC1 [CBK084530] | 109 |
| CCN1CCN(c2ccc(NC(=S)NC(=O)c3ccccc3Br)cc2)CC1 [CBK268583] | 102 |
| O=C1c2ccccc2NC(c2ccc(O)cc2)N1/N=C/c1ccc(O)cc1 (centres unmarked) [CBK262985] | 84.5 |
| Cc1cc(C)n(-c2ccc(CN3C(=O)NC4(CCCC4)C3=O)cc2)n1 [CBK305796] | 88.3 |
| C=CCNC(=O)Cn1c(-c2ccco2)cc2cccnc21 [CBK282719] | 82.6 |
| CN1CCN(CC(CC(=O)Nc2ccccc2)C(=O)O)CC1 (centres unmarked) [CBK286746] | 81.8 |
| COc1ccc(/C=C/C(=O)O)cc1S(=O)(=O)Nc1ccc(C(=O)O)cc1 [CBK261246] | 108 |
| Cc1ccc(S(=O)(=O)Nc2ccccc2C(N)=O)cc1 [CBK056893] | 76 |
| COc1ccccc1CN(CCCN)C(=O)NC(C)c1ccccc1 (centres unmarked) [CBK034667C] | 87.3 |
| Cc1cc2nc(CC(=O)NN)[nH]c2cc1C [CBK012180] | 89.3 |
| COc1ccc(OC(C)C(=O)Nc2ccc(S(N)(=O)=O)cc2)cc1 (centres unmarked) [CBK263646] | 96 |

| Compound | viability at 28.5 h, 10 µM [%] |
| --- | --- |
| O=C(O)CCC(=O)Nc1ccc(C(=O)N2CCCc3ccccc32)cc1 [CBK269118] | 114 |
| Cc1sc2ncn(CC(=O)NC3CCOc4ccccc43)c(=O)c2c1C (centres unmarked) [CBK304562] | 86.3 |
| N#Cc1ccc(Cn2cc(C(=O)C(N)=O)c3ccccc32)cc1 [CBK270062] | 84.2 |
| Cc1oc2ccc(O)cc2c1C(=O)NCCCN1CC(C)CC(C)C1 (centres unmarked) [CBK282161] | 110 |
| COC(=O)[C@@H]1Cc2ncn(Cc3ccc(Cl)cc3)c2CN1C(=O)c1ccc(OC)cc1 [CBK288983] | 84.2 |
| Cc1ccccc1-n1nc(C)c(CN2CCC(O)C(C)C2)c1C (centres unmarked) [CBK282739] | 84.2 |
| COc1ccc(N2C(=O)CSC23C(=O)Nc2ccc(Br)cc23)cc1 (centres unmarked) [CBK093454] | 96.6 |
| Cc1c(Cl)cccc1S(=O)(=O)Nc1cccc(C(=O)Nc2ccc(F)cc2)c1 [CBK038983] | 99.3 |
| O=C(O)CNC(=O)/C(=C\c1ccccc1F)NC(=O)c1ccccc1 [CBK263961] | 96.5 |
| Nc1ccc(-c2cncc(NCc3ccccc3)n2)cc1 [CBK065578] | 109 |
| COc1ccc(C(CC(=O)O)c2ccc3c(c2)OCCO3)cc1OC (centres unmarked) [CBK287121] | 87 |
| Nc1cc(-c2ccco2)nn(Cc2c(F)cccc2Cl)c1=O [CBK282881] | 86.1 |
| CCOC(=O)C1CCCN(c2c(C#N)cnc3ccc(Cl)cc23)C1 (centres unmarked) [CBK304405] | 85.8 |
| CCOC(=O)c1cc2c(CNc3ccc(OC)nc3)cccc2o1 [CBK006086] | 91.7 |
| Cc1ccccc1OCc1nnc(SCc2c(Cl)cccc2[N+](=O)[O-])n1C [CBK265846] | 92.4 |
| CC(C)C[C@@H]1N[C@H](C(=O)NC2CCC2)Cc2cn(Cc3nccn3C)c3cccc1c23 [CBK289422] | 101 |
| Nc1nonc1C(=O)NCCNCc1ccc(Cl)cc1 [CBK267194] | 101 |
| COc1ccc(/C=C(\NC(C)=O)C(=O)N2CCNCC2)cc1 [CBK077408] | 90.5 |
| O=S(=O)(c1ccc2nc(-c3ccccc3)c(-c3ccc(O)cc3)nc2c1)c1ccc2nc(-c3ccccc3)c(-c3ccc(O)cc3)nc2c1 [CBK261148] | 108 |
| CCOC(=O)C1(C2CCCCC2)CCN(C(=O)c2ccc(OC(F)(F)F)cc2)CC1 [CBK136921] | 96.2 |
| N#CCCn1cc(C(=O)N2CCOCC2)c(-c2cccs2)n1 [CBK306195] | 110 |
| Cc1cc(CNC(=O)N2CCN(CCc3ccccc3)CC2)no1 [CBK158898] | 92.7 |
| Cc1ccc([N+](=O)[O-])c(OCCN2CCN(Cc3ccccc3)CC2)c1 [CBK268568G] | 99.2 |

| Compound | viability at 28.5 h, 10 µM [%] |
| --- | --- |
| O=C(N[C@H]1CCN2C(=O)c3cc(-c4cccs4)ccc3NC(=O)[C@H]12)c1cnccn1 [CBK289337] | 116 |
| COCC(=O)Nc1ccc(N2CCCC2=O)c(Cl)c1 [CBK256871] | 106 |
| Cc1cccc(C(=O)NC(CC(C)C)c2nnc3n2CCNCC3)n1 (centres unmarked) [CBK306866] | 108 |
| c1ccc(N2CCN(c3cncc(-c4cccs4)n3)CC2)nc1 [CBK065502] | 102 |
| CCN(Cc1ccco1)C(=O)NC1CCCc2c1cnn2CCO (centres unmarked) [CBK305767] | 101 |
| O=C1c2ccc(Oc3ccc4c(c3)C(=O)N(c3ccccn3)C4=O)cc2C(=O)N1c1ccccn1 [CBK261202] | 99.3 |
| COc1ccc(OC)c(CN2CCCN(C)CC2)c1 [CBK261554] | 96.1 |
| O=C(C1=C(O)C(=O)N(Cc2cccnc2)C1c1cccnc1)c1ccccc1 (centres unmarked) [CBK264522] | 99.5 |
| Cc1n[nH]c(=S)n1-c1ccc(Cl)cc1 [CBK012457] | 94.5 |
| COc1cc(-c2cnc3[nH]c(=O)n([C@@H](CO)C(C)C)c3n2)cc(OC)c1OC [CBK064471] | 105 |
| CC(C)C(=O)Nc1cc2cccnc2nc1-c1ccc2c(c1)OCCCO2 [CBK073658] | 96.3 |
| COc1ccc(S(=O)(=O)NCCCn2ccnc2)cc1Cl [CBK269997] | 97.2 |
| CCOc1ccc(-c2nc(-c3cccc(NC(=O)c4ccccc4C(=O)O)c3)no2)cc1 [CBK299832] | 85.2 |
| c1ccc(CCn2c3ccccc3c3nnc(SCc4ccc5nonc5c4)nc32)cc1 [CBK267516] | 97.4 |
| O=c1[nH]c(N2CCC3(CC2)OCCO3)nc2c(-c3ccccc3Cl)csc12 [CBK291128] | 114 |
| O=c1c(-c2ccco2)[n+]([O-])c2ccccc2n1OCc1ccccn1 [CBK266570] | 91.8 |
| O=C(NCc1ccco1)[C@@H]1C=CCN1C(=O)Nc1ccccc1Cl [CBK284269] | 84.3 |
| CCN(CCN(C)C)Cc1ccc(F)cc1F [CBK261877] | 93.1 |
| O=[N+]([O-])c1cc(S(=O)(=O)Nc2ccc3cn[nH]c3c2)ccc1Cl [CBK067160] | 91.1 |
| COc1ccc(CC(=O)N2CCCC(c3cccc(Cc4cccc(C)c4)n3)C2)cc1 (centres unmarked) [CBK286498] | 99.8 |
